According to ChEMBL document CHEMBL3885881, “DrugMatrix”:

Species on record: Rattus norvegicus
Test: DrugMatrix - Regimen: Daily Repeat
Format: toxicity, organism-based, Sprague-Dawley
Parameters: regimen Daily Repeat, gender Male, age 6-8 weeks
Details: in vivo, po, route oral GAVAGE, vehicle .5 % CMC; for URIC ACID / ALANINE AMINOTRANSFERASE / ALBUMIN / ALKALINE PHOSPHATASE / ASPARTATE AMINOTRANSFERASE / BLOOD UREA NITROGEN / CARBON DIOXIDE / CHLORIDE / CHOLESTEROL / CREATINE PHOSPHOKINASE / CREATININE / GLUCOSE / LACTATE DEHYDROGENASE / LIPASE / PHOSPHORUS / POTASSIUM / SODIUM / TOTAL BILIRUBIN / TOTAL PROTEIN: tissue Plasma; for ABSOLUTE BASOPHIL / ABSOLUTE EOSINOPHIL / ABSOLUTE LYMPHOCYTE / ABSOLUTE MONOCYTE / ABSOLUTE SEGMENTED NEUTROPHIL / BASOPHIL / EOSINOPHIL / ERYTHROCYTE COUNT / HEMATOCRIT / HEMOGLOBIN / LEUKOCYTE COUNT / LYMPHOCYTE / MEAN CORPUSCULAR HEMOGLOBIN / MEAN CORPUSCULAR HEMOGLOBIN CONCENTRATION / MEAN CORPUSCULAR VOLUME / MONOCYTE / NEUTROPHIL / NUCLEATED RED BLOOD CELLS / PLATELET COUNT: tissue Blood
[1] = 10 mg/kg, 120 h, dose level Low, time 5 day
[2] = 400 mg/kg, 72 h, dose level High, time 3 day
[3] = 400 mg/kg, 120 h, dose level High, time 5 day

CC(C)(C#N)c1cc(Cn2cncn2)cc(C(C)(C)C#N)c1 [ANASTROZOLE]
URIC ACID (10 mg/kg, 72 h, dose level Low, time 3 day): 1.33 mg/dL | ABSOLUTE BASOPHIL [1]: 0 CELLS/uL | ABSOLUTE EOSINOPHIL [1]: 0 CELLS/uL | ABSOLUTE LYMPHOCYTE [1]: 12980 CELLS/uL | ABSOLUTE MONOCYTE [1]: 0 CELLS/uL | ABSOLUTE SEGMENTED NEUTROPHIL [1]: 1020 CELLS/uL | BASOPHIL [1]: 0% | EOSINOPHIL [1]: 0% | ERYTHROCYTE COUNT [1]: 5.49 x10E6/uL | HEMATOCRIT [1]: 34.93% | HEMOGLOBIN [1]: 13.93 G/DL | LEUKOCYTE COUNT [1]: 14 x10E3/uL | LYMPHOCYTE [1]: 92.67% | MEAN CORPUSCULAR HEMOGLOBIN [1]: 25.4 pg | MEAN CORPUSCULAR HEMOGLOBIN CONCENTRATION [1]: 39.87 G/DL | MEAN CORPUSCULAR VOLUME [1]: 63.57 fL | MONOCYTE [1]: 0% | NEUTROPHIL [1]: 7.33% | NUCLEATED RED BLOOD CELLS [1]: 0 /100WBC | PLATELET COUNT [1]: 1087.67 x10E3/uL | ALANINE AMINOTRANSFERASE [1]: 48 u/L | ALBUMIN [1]: 4.1 G/DL | ALKALINE PHOSPHATASE [1]: 364.67 u/L | ASPARTATE AMINOTRANSFERASE [1]: 77.33 u/L | BLOOD UREA NITROGEN [1]: 18.33 mg/dL | CARBON DIOXIDE [1]: 26 mmol/L | CHLORIDE [1]: 103 MEQ/L | CHOLESTEROL [1]: 60.67 mg/dL | CREATINE PHOSPHOKINASE [1]: 224.33 u/L | CREATININE [1]: 0.14 mg/dL | GLUCOSE [1]: 146 mg/dL | LACTATE DEHYDROGENASE [1]: 164 u/L | LIPASE [1]: 9.33 u/L | PHOSPHORUS [1]: 13.6 mg/dL | POTASSIUM [1]: 7.31 MEQ/L | SODIUM [1]: 142.23 MEQ/L | TOTAL BILIRUBIN [1]: 0.2 mg/dL | TOTAL PROTEIN [1]: 5.87 G/DL | URIC ACID [1]: 1.9 mg/dL | ABSOLUTE BASOPHIL [2]: 0 CELLS/uL | ABSOLUTE EOSINOPHIL [2]: 0 CELLS/uL | ABSOLUTE LYMPHOCYTE [2]: 16859 CELLS/uL | ABSOLUTE MONOCYTE [2]: 135.33 CELLS/uL | ABSOLUTE SEGMENTED NEUTROPHIL [2]: 1372.33 CELLS/uL | BASOPHIL [2]: 0% | EOSINOPHIL [2]: 0% | ERYTHROCYTE COUNT [2]: 5.62 x10E6/uL | HEMATOCRIT [2]: 34.7% | HEMOGLOBIN [2]: 13.6 G/DL | LEUKOCYTE COUNT [2]: 18.37 x10E3/uL | LYMPHOCYTE [2]: 91.67% | MEAN CORPUSCULAR HEMOGLOBIN [2]: 24.17 pg | MEAN CORPUSCULAR HEMOGLOBIN CONCENTRATION [2]: 39.17 G/DL | MEAN CORPUSCULAR VOLUME [2]: 61.7 fL | MONOCYTE [2]: 0.67% | NEUTROPHIL [2]: 7.67% | NUCLEATED RED BLOOD CELLS [2]: 0.33 /100WBC | PLATELET COUNT [2]: 1228.33 x10E3/uL | ALANINE AMINOTRANSFERASE [2]: 89 u/L | ALBUMIN [2]: 4.27 G/DL | ALKALINE PHOSPHATASE [2]: 433 u/L | ASPARTATE AMINOTRANSFERASE [2]: 126 u/L | BLOOD UREA NITROGEN [2]: 17.33 mg/dL | CARBON DIOXIDE [2]: 28.33 mmol/L | CHLORIDE [2]: 98.33 MEQ/L | CHOLESTEROL [2]: 69.33 mg/dL | CREATINE PHOSPHOKINASE [2]: 255 u/L | CREATININE [2]: 0.3 mg/dL | GLUCOSE [2]: 143 mg/dL | LACTATE DEHYDROGENASE [2]: 237 u/L | LIPASE [2]: 11.33 u/L | PHOSPHORUS [2]: 11.7 mg/dL | POTASSIUM [2]: 7.49 MEQ/L | SODIUM [2]: 141.93 MEQ/L | TOTAL BILIRUBIN [2]: 0.17 mg/dL | TOTAL PROTEIN [2]: 5.87 G/DL | URIC ACID [2]: 1.83 mg/dL | ABSOLUTE BASOPHIL [3]: 0 CELLS/uL | ABSOLUTE EOSINOPHIL [3]: 0 CELLS/uL | ABSOLUTE LYMPHOCYTE [3]: 11924.33 CELLS/uL | ABSOLUTE MONOCYTE [3]: 19.67 CELLS/uL | ABSOLUTE SEGMENTED NEUTROPHIL [3]: 1989.33 CELLS/uL | BASOPHIL [3]: 0% | EOSINOPHIL [3]: 0% | ERYTHROCYTE COUNT [3]: 5.98 x10E6/uL | HEMATOCRIT [3]: 35.47% | HEMOGLOBIN [3]: 14.6 G/DL | LEUKOCYTE COUNT [3]: 13.93 x10E3/uL | LYMPHOCYTE [3]: 82% | MEAN CORPUSCULAR HEMOGLOBIN [3]: 24.43 pg | MEAN CORPUSCULAR HEMOGLOBIN CONCENTRATION [3]: 41.17 G/DL | MEAN CORPUSCULAR VOLUME [3]: 59.37 fL | MONOCYTE [3]: 0.33% | NEUTROPHIL [3]: 17.67% | NUCLEATED RED BLOOD CELLS [3]: 0.67 /100WBC | PLATELET COUNT [3]: 1447 x10E3/uL | ALANINE AMINOTRANSFERASE [3]: 478.67 u/L | ALBUMIN [3]: 4.53 G/DL | ALKALINE PHOSPHATASE [3]: 622.67 u/L | ASPARTATE AMINOTRANSFERASE [3]: 1130.67 u/L | BLOOD UREA NITROGEN [3]: 22 mg/dL | CARBON DIOXIDE [3]: 21.33 mmol/L | CHLORIDE [3]: 99.33 MEQ/L | CHOLESTEROL [3]: 88.33 mg/dL | CREATINE PHOSPHOKINASE [3]: 445.67 u/L | CREATININE [3]: 0.46 mg/dL | GLUCOSE [3]: 115 mg/dL | LACTATE DEHYDROGENASE [3]: 826.67 u/L | LIPASE [3]: 14.33 u/L | PHOSPHORUS [3]: 11.97 mg/dL | POTASSIUM [3]: 6.47 MEQ/L | SODIUM [3]: 142.23 MEQ/L | TOTAL BILIRUBIN [3]: 0.17 mg/dL | URIC ACID [3]: 2.23 mg/dL
